Measured values from US5413915A (priority 1991, dated 1995).
Marks after values point to notes of the source that are not given here.

Experiments:
[1] = in vivo; cited from earlier work
[2] = tested on: Salmonella typhimurium; settings: cited from earlier work
[3] = in vivo; cited from earlier work; remark: listed apart in the source
[4] = tested on: rat liver microsomes; assay type: biochemical; set-up: unit not given here

Row | Molecule | Teratogen Activity [1] | Mutagenicity [2] | Tumorigen Activity [3] | Detector Response, threshold dose [4] | Tumorigen Activity, assignment based on NCI/NTP carcinogenesis bioassay results [3] | Tumorigen Activity, assignment based on IARC reports [3] | Carcinogenic Status [3]
1 | BrCCBr [1,2-Dibromoethane] | - | + | + |  |  |  | 
2 | ClCCCl [1,2-Dichloroethane] | - | + | + | 20 |  |  | 
3 | C1COCCO1 [1,4-Dioxane] | - | - |  | 10 | + |  | 
4 | CCCCO [1-Butanol] | - | - | - |  |  |  | 
5 | O=C(O)COc1ccc(Cl)cc1Cl [2,4-D] | + | - |  |  | - | + | 
6 | Oc1ccccc1Cl [2-Chlorophenol] | - | - | + | < 1 |  |  | 
7 | Oc1ccc2ccccc2c1 [2-Naphthol] | - |  | - | 20 |  |  | 
8 | CC(C)O [2-Propanol] | - | - | - |  |  | + | 
9 | NC(N)=S [2-Thiourea] | + | + | + | 7 |  |  | 
10 | Oc1cccc(Cl)c1 [3-Chlorophenol] | - | - | + | < 1 |  |  | 
11 | O=c1cc(-c2ccccc2)oc2ccc3ccccc3c12 [5,6-Naphthoflavone] | - | - | - |  |  |  | 
12 | C=CC(N)=O [Acrylamide] | - |  | + | 0.2 |  |  | 
13 | CCc1cccc(CC)c1N(COC)C(=O)CCl [Alachlor (ind.), Alachlor] | - | - | - |  |  |  | 
14 | O=C1O[C@H]([C@@H](O)CO)C(O)=C1O [Ascorbate] | + | + | - |  |  |  | Negative
15 | CCC1(CC)C(=O)NC(=O)NC1=O [Barbital] | - | - | - |  |  |  | 
16 | ClC(Cl)Cl [CHCl3] | + | + | + |  |  |  | 
17 | S=C=S [CS2] | + | + | - |  |  |  | 
18 | CNC(=O)Oc1cccc2ccccc12 [Carbaryl (ind.), Carbaryl] | + |  | + |  |  |  | 
19 | CNC(=O)Oc1cccc2c1OC(C)(C)C2 [Carbofuran (ind.), Carbofuran] | - | + | - |  |  |  | 
20 | O=C(O)CC(O)(CC(=O)O)C(=O)O [Citrate] | - |  | - |  |  |  | 
21 | CCNc1nc(Cl)nc(NC(C)(C)C#N)n1 [Cyanazine (ind.), Cyanazine] | - | + | - |  |  |  | 
22 | COc1c(Cl)ccc(Cl)c1C(=O)O [Dicamba (ind.), Dicamba] | - | + | - |  |  |  | 

Row | Molecule | Teratogen Activity [1] | Mutagenicity [2] | Tumorigen Activity [3] | Detector Response, threshold dose [4] | Tumorigen Activity, assignment based on NCI/NTP carcinogenesis bioassay results [3] | Tumorigen Activity, assignment based on IARC reports [3] | Carcinogenic Status [3]
23 | ClC1=C(Cl)[C@]2(Cl)[C@@H]3[C@@H]4C[C@@H]([C@H]5O[C@@H]45)[C@@H]3[C@@]1(Cl)C2(Cl)Cl [Dieldrin] | + | + | +^e |  |  |  | 
24 | CN(C)C=O [Dimethylformamide] | - | + | - |  |  |  | 
25 | C[S+](C)[O-] [Dimethylsulfoxide] | + | - | - |  |  |  | 
26 | O=C(O)CN(CCN(CC(=O)O)CC(=O)O)CC(=O)O [EDTA] | + | - | - |  |  |  | 
27 | CCO [Ethanol] | + | - | - |  |  |  | 
28 | CCOC(C)=O [Ethyl Acetate] | - | - | - |  |  |  | 
29 | OCC(O)CO [Glycerol] | - |  | - |  |  |  | 
30 | NC(=O)CI [Iodoacetamide] | - |  | + | 0.1 |  |  | 
31 | CCOP(=S)(NC(C)C)Oc1ccccc1C(=O)OC(C)C (stereo not drawn) [Isofenphos (ind.), Isofenphos] | - | - | - |  |  |  | 
32 | CCOP(=S)(OCC)Oc1nc(Cl)n(C(C)C)n1 [Isozofos (ind.), Isozofos] | -? | -? | -? |  |  |  | 
33 | O=S(=O)(O)CCCN1CCOCC1 [MOPS Buffer, morpholinopropanesulfonic acid] | -? | -? | -? |  |  |  | 
34 | OC[C@@H](O)[C@@H](O)[C@H](O)[C@H](O)CO [Mannitol] | - | - | - |  |  |  | 
35 | CO [Methanol] | + | - | - |  |  |  | 
36 | CNC(=O)ON=C(C)SC [Methomyl (ind.), Methomyl] | - | - | - |  |  |  | 
37 | C[n+]1ccc(-c2cc[n+](C)cc2)cc1 [Methyl viologen] | + | + | + |  |  |  | 
38 | CCc1cccc(C)c1N(C(=O)CCl)C(C)COC (stereo not drawn) [Metolachlor (ind.), Metolachlor] | - | + | - |  |  |  | 
39 | CNC(=O)Oc1cc(C)c(N(C)C)c(C)c1 [Mexacarbate (ind.), Mexacarbate] | - | - | +^b |  | - |  | 
40 | [Cl-].[Na+] [NaCl] | - | - | - |  |  |  | 
41 | c1ccc2ccccc2c1 [Naphthalene] | + |  | +/- |  |  |  | 
42 | O=C(O)CN(CC(=O)O)CC(=O)O [Nitrilotriacetate] | + | - | + |  |  |  | 
43 | O=[O+][O-] [Ozone] | + | - | +^b |  |  |  | 
44 | C[n+]1ccc(-c2cc[n+](C)cc2)cc1 [Paraquat (ind.), Paraquat] | + | + | - |  |  |  | 

Row | Molecule | Teratogen Activity [1] | Mutagenicity [2] | Tumorigen Activity [3] | Detector Response, threshold dose [4] | Tumorigen Activity, assignment based on NCI/NTP carcinogenesis bioassay results [3] | Tumorigen Activity, assignment based on IARC reports [3] | Carcinogenic Status [3]
45 | O=C(O)COc1ccccc1 [Phenoxyacetate] | - | - | - |  |  |  | 
46 | O=S(=O)(F)Cc1ccccc1 [Phenylmethylsulfonyl fluoride] | - | - | - |  |  |  | 
47 | CNC(=O)Oc1ccccc1OC(C)C [Propoxur (ind.), Propoxur] | - | - | - |  |  |  | 
48 | CCNc1nc(Cl)nc(NCC)n1 [Simazine (ind.), Simazine] | + | - | +^e |  |  |  | 
49 | CCCCCCCCCCCCOS(=O)(=O)[O-].[Na+] [Sodium laurylsulfate] | - | - | - |  |  |  | 
50 | CC(C)C(C(=O)OC(C#N)c1cccc(Oc2ccccc2)c1)c1ccc(Cl)cc1 (stereo not drawn) [Sumicidin (ind.), Sumicidin] | -? |  | -? | 0.5 |  |  | 
51 | NC(CO)(CO)CO [TRIS Buffer, tris(hydroxymethyl-)aminomethane] | - | - | - |  |  |  | 
52 | ClC(Cl)=C(Cl)Cl [Tetrachloroethylene] | + | + | + |  |  |  | 
53 | O=S(=O)(c1ccc(Cl)cc1)c1cc(Cl)c(Cl)cc1Cl [Tetradifon (ind.), Tetradifon] | - | - | - |  |  |  | 
54 | Cc1cc(-c2cc(C)c(N)c(C)c2)cc(C)c1N [Tetramethylbenzidine] | - | - | - |  |  |  | 
55 | Cn1c(=O)c2[nH]cnc2n(C)c1=O [Theophylline] | + |  | - |  |  |  | 
56 | Cc1ccccc1 [Toluene] | + |  | - |  |  |  | 
57 | CCN(CC)CC [Triethylamine] | - | - | - |  |  |  | 
58 | NC(N)=O [Urea] | - | - | + |  |  |  | 
59 | CCCCCC [n-Hexane] | - | - | - |  |  |  | 
60 | c1cnc2c(c1)ccc1cccnc12 [o-Phenanthroline] | - | - | - |  |  |  | 
61 | Oc1ccc(-c2ccccc2)cc1 [p-Hydroxybiphenyl] | -? | - | + |  |  |  | 
62 | Cyanacrylate [Cyanacrylate (ind.)] | - | - | - |  |  |  | 
63 | Lecithin [Lecithin, fresh] | - | - | - |  |  |  | 
64 | Lecithin [Lecithin, oxidized] | - | + | + |  |  |  | 
65 | Magnesium(II) | - | - | - |  |  |  | 
66 | Triton X-100 | - | - | - |  |  |  | 
